Key:
[1] = tested on: LAMPU (purple deadnettle); assay: Post-Emergent Test III (Wheat and Barley); assay type: in vivo, Lamium purpureum; settings: for Visual Growth Reduction (%) 21 Days After Application, LAMPU: LAMPU purple deadnettle (Lamium purpureum), post-emergent
Protocol: (§1) Seeds of the desired test plant species were planted in Sun Gro MetroMix® 306 planting mixture, which typically has a pH of 6.0 to 6.8 and an organic matter content of about 30 percent, in plastic pots with a surface area of 103.2 square centimeters (cm^2). When required to ensure good germination and healthy plants, a fungicide treatment and/or other chemical or physical treatment was applied. The plants were grown for 7-36 days in a greenhouse with an approximate 14 h photoperiod which was maintained at about 18° C. during the day and 17° C. during the night. Nutrients and water were added on a regular basis and supplemental lighting was provided with overhead metal halide 1000-Watt lamps as necessary. The plants were employed for testing when they reached the second or third true leaf stage.
(§2) A weighed amount, determined by the highest rate to be tested, of each test compound was placed in a 25 mL glass vial and was dissolved in 4 mL of a 97:3 v/v mixture of acetone and DMSO to obtain concentrated stock solutions. […] The concentrated stock solutions obtained were diluted with 20 mL of an aqueous mixture containing acetone, water, isopropyl alcohol, DMSO, Agri-Dex crop oil concentrate, and X-77 surfactant in a 48:39:10:1.5:1.5:0.02 v/v ratio to obtain spray solutions containing the highest application rates. Additional application rates were obtained by serial dilution of 12 mL of the high rate solution into a solution containing 2 mL of 97:3 v/v mixture of acetone and DMSO and 10 mL of an aqueous mixture containing acetone, water, isopropyl alcohol, DMSO, Agri-Dex crop oil concentrate, and X-77 surfactant in a 48:39:10:1.5:1.5:0.02 v/v ratio to obtain ½×, ¼×, ⅛× and 1/16× rates of the high rate. Compound requirements are based upon a 12 mL application volume at a rate of 187 liters per hectare (L/ha). Formulated compounds were applied to the plant material with an overhead Mandel track sprayer equipped with 8002E nozzles calibrated to deliver 187 L/ha over an application area of 0.503 square meters at a spray height of 18 inches (43 cm) above the average plant canopy height. Control plants were sprayed in the same manner with the solvent blank.
(§3) The treated plants and control plants were placed in a greenhouse as described above and watered by subirrigation to prevent wash-off of the test compounds. After 21 dAYS, the condition of the test plants as compared with that of the untreated plants was determined visually and scored on a scale of 0 to 100 percent where 0 corresponds to no injury and 100 corresponds to complete kill and presented as indicated in Table A.
(§4) By applying the well-accepted probit analysis as described by J. Berkson in Journal of the American Statistical Society, 48, 565 (1953) and by D. Finney in “Probit Analysis” Cambridge University Press (1952), herbicidal injury of a specific compound at various rates can be used to calculate GR10, GR20, GR50, GR80 and GR90 values, which are defined as growth reduction factors that correspond to the effective dose of herbicide required to provide plant growth reduction (GR) of 10 percent, 20 percent, 50 percent, 80 percent and 90 percent, respectively. Probit analysis was applied to data collected from multiple dose rates of individual compounds utilizing the procedures explained in the following examples. The analysis of those dose rates is captured in the following tables.

[2] = tested on: test plant species in Wheat and Barley; assay: Post-Emergent Test III (Wheat and Barley), further species of Table 9; assay type: in vivo; settings: for Visual Growth Reduction (%) 21 Days After Application, CHEAL: CHEAL lambsquarters (Chenopodium album); for Visual Growth Reduction (%) 21 Days After Application, CHEAL / Visual Growth Reduction (%) 21 Days After Application, GALAP / Visual Growth Reduction (%) 21 Days After Application, STEME / Visual Growth Reduction (%) 21 Days After Application, VIOTR: post-emergent; for Visual Growth Reduction (%) 21 Days After Application, GALAP: GALAP cleavers (Galium aparine); for Visual Growth Reduction (%) 21 Days After Application, STEME: STEME common chickweed (Stellaria media); for Visual Growth Reduction (%) 21 Days After Application, VIOTR: VIOTR wild pansy (Viola tricolor)
Protocol: as §1, §2, §3, §4

SASKR (Russian thistle) = assay: Post-Emergent Test III (Wheat and Barley); assay type: in vivo, Salsola tragus; settings: for Visual Growth Reduction (%) 21 Days After Application, SASKR: SASKR Russian thistle (Salsola iberica), post-emergent
Protocol: as §1, §2, §3, §4

LOLSS = assay: Post-Emergent Test III (Wheat and Barley); assay type: in vivo; settings: for GR50, LOLSS: effective dose for growth reduction of 50 percent; for GR50, LOLSS / GR80, LOLSS: probit analysis; for GR80, LOLSS: effective dose for growth reduction of 80 percent; for pest or weed control at 35 g/ha / pest or weed control at 70 g/ha / pest or weed control at 140 g/ha: post-emergence, 504 h, postemergence, read-out: Visual Growth Reduction (%) 21 Days After Application, LOLSS; for pest or weed control at 35 g/ha: 35 g ai/ha; for pest or weed control at 70 g/ha: 70 g ai/ha; for pest or weed control at 140 g/ha: 140 g ai/ha
Method in brief: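 Post-emergence foliar spray, 187 L/ha, serial ½×–1/16× rates; plants at 2nd–3rd true leaf; greenhouse ~18 °C day/17 °C night, 14 h light; subirrigated after treatment. Visual injury 0–100% at 21 d vs untreated; GR values by probit analysis over multiple rates.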

Cc1c(-c2cc(N)c(Cl)c(C(=O)O)n2)ccc(Cl)c1Cl [Compound 28]
Visual Growth Reduction (%) 21 Days After Application, LAMPU ([1]; 17.5 g ai/ha): A (95-100) | Visual Growth Reduction (%) 21 Days After Application, LAMPU ([1]; 35 g ai/ha): A (95-100) | Visual Growth Reduction (%) 21 Days After Application, LAMPU ([1]; 70 g ai/ha): A (95-100) | GR50, LAMPU ([1]; LAMPU, growth reduction of 50%, probit analysis, 21 days): 1 g ai/ha | GR80, LAMPU ([1]; LAMPU, growth reduction of 80%, probit analysis, 21 days): 1 g ai/ha | GR90, LAMPU ([1]; LAMPU, growth reduction of 90%, probit analysis, 21 days): 1 g ai/ha | Visual Growth Reduction (%) 21 Days After Application, CHEAL ([2]; 17.5 g ai/ha): C (75-84) | Visual Growth Reduction (%) 21 Days After Application, CHEAL ([2]; 35 g ai/ha): C (75-84) | Visual Growth Reduction (%) 21 Days After Application, CHEAL ([2]; 70 g ai/ha): B (85-94) | GR50, CHEAL ([2]; CHEAL, growth reduction of 50%, probit analysis, 21 days): 1 g ai/ha | GR80, CHEAL ([2]; CHEAL, growth reduction of 80%, probit analysis, 21 days): 30 g ai/ha | GR90, CHEAL ([2]; CHEAL, growth reduction of 90%, probit analysis, 21 days): >140 g ai/ha | Visual Growth Reduction (%) 21 Days After Application, GALAP ([2]; 17.5 g ai/ha): F (30-44) | Visual Growth Reduction (%) 21 Days After Application, GALAP ([2]; 35 g ai/ha): E (45-59) | Visual Growth Reduction (%) 21 Days After Application, GALAP ([2]; 70 g ai/ha): D (60-74) | GR50, GALAP ([2]; GALAP, growth reduction of 50%, probit analysis, 21 days): 29 g ai/ha | GR80, GALAP ([2]; GALAP, growth reduction of 80%, probit analysis, 21 days): 120 g ai/ha | GR90, GALAP ([2]; GALAP, growth reduction of 90%, probit analysis, 21 days): >140 g ai/ha | Visual Growth Reduction (%) 21 Days After Application, STEME ([2]; 17.5 g ai/ha): D (60-74) | Visual Growth Reduction (%) 21 Days After Application, STEME ([2]; 35 g ai/ha): C (75-84) | Visual Growth Reduction (%) 21 Days After Application, STEME ([2]; 70 g ai/ha): B (85-94) | GR50, STEME ([2]; STEME, growth reduction of 50%, probit analysis, 21 days): 11 g ai/ha | GR80, STEME ([2]; STEME, growth reduction of 80%, probit analysis, 21 days): 31 g ai/ha | GR90, STEME ([2]; STEME, growth reduction of 90%, probit analysis, 21 days): 53 g ai/ha | Visual Growth Reduction (%) 21 Days After Application, VIOTR ([2]; 17.5 g ai/ha): G (0-29) | Visual Growth Reduction (%) 21 Days After Application, VIOTR ([2]; 35 g ai/ha): G (0-29) | Visual Growth Reduction (%) 21 Days After Application, VIOTR ([2]; 70 g ai/ha): G (0-29) | GR50, VIOTR ([2]; VIOTR, growth reduction of 50%, probit analysis, 21 days): >140 g ai/ha | GR80, VIOTR ([2]; VIOTR, growth reduction of 80%, probit analysis, 21 days): >140 g ai/ha | GR90, VIOTR ([2]; VIOTR, growth reduction of 90%, probit analysis, 21 days): >140 g ai/ha | Visual Growth Reduction (%) 21 Days After Application, SASKR (SASKR (Russian thistle); 17.5 g ai/ha): C (75-84) | Visual Growth Reduction (%) 21 Days After Application, SASKR (SASKR (Russian thistle); 35 g ai/ha): B (85-94) | Visual Growth Reduction (%) 21 Days After Application, SASKR (SASKR (Russian thistle); 70 g ai/ha): A (95-100) | GR50, SASKR (SASKR (Russian thistle); SASKR, growth reduction of 50%, probit analysis, 21 days): 2 g ai/ha | GR80, SASKR (SASKR (Russian thistle); SASKR, growth reduction of 80%, probit analysis, 21 days): 17 g ai/ha | GR90, SASKR (SASKR (Russian thistle); SASKR, growth reduction of 90%, probit analysis, 21 days): 47 g ai/ha

COC(=O)c1nc(-c2ccc(C3CC3)nc2)c(F)c(N)c1Cl [Compound 49]
GR50, LOLSS (LOLSS): 15 g ai/ha | GR80, LOLSS (LOLSS): 31 g ai/ha | pest or weed control at 35 g/ha (LOLSS): 95 to 100% | pest or weed control at 70 g/ha (LOLSS): 85 to 94% | pest or weed control at 140 g/ha (LOLSS): 85 to 94%

COC(=O)c1nc(-c2ccc(C(F)(F)F)nc2)c(F)c(N)c1Cl [Compound 59, methyl 4-amino-5-chloro-3-fluoro-6′-(trifluoromethyl)-[2,3′-bipyridine]-6-carboxylate]
GR50, LOLSS (LOLSS): >140 g ai/ha | GR80, LOLSS (LOLSS): >140 g ai/ha | pest or weed control at 35 g/ha (LOLSS): 0 to 29% | pest or weed control at 70 g/ha (LOLSS): 30 to 44%

COC(=O)c1nc(-c2ccc(C(F)(F)F)nc2)c(Cl)c(N)c1Cl [Compound 83]
GR50, LOLSS (LOLSS): 59 g ai/ha | GR80, LOLSS (LOLSS): 99 g ai/ha | pest or weed control at 35 g/ha (LOLSS): 0 to 29% | pest or weed control at 70 g/ha (LOLSS): 60 to 74%

COC(=O)c1nc(-c2ccc(Cl)c(F)c2OC)c(F)c(N)c1Cl [Compound 39, methyl 4-amino-3-chloro-6-(4-chloro-3-fluoro-2-methoxyphenyl)-5-fluoropicolinate]
pest or weed control at 35 g/ha (LOLSS): 0 to 29% | pest or weed control at 70 g/ha (LOLSS): 0 to 29% | pest or weed control at 140 g/ha (LOLSS): 0 to 29%

COC(=O)c1nc(-c2ccc(OC(F)F)nc2)c(F)c(N)c1Cl [Compound 71]
GR50, LOLSS (LOLSS): >140 g ai/ha | GR80, LOLSS (LOLSS): >140 g ai/ha | pest or weed control at 35 g/ha (LOLSS): 0 to 29% | pest or weed control at 70 g/ha (LOLSS): 0 to 29% | pest or weed control at 140 g/ha (LOLSS): 30 to 44%

Cc1c(-c2ccc(C(F)(F)F)nc2)nc(C(=O)O)c(Cl)c1N [Compound 51, 4-amino-5-chloro-3-methyl-6′-(trifluoromethyl)-[2,3′-bipyridine]-6-carboxylic acid]
pest or weed control at 35 g/ha (LOLSS): 0 to 29% | pest or weed control at 70 g/ha (LOLSS): 0 to 29%

Nc1c(F)c(-c2ccc(OC(F)F)nc2)nc(C(=O)O)c1Cl [Compound 66]
GR50, LOLSS (LOLSS): >140 g ai/ha | GR80, LOLSS (LOLSS): >140 g ai/ha | pest or weed control at 35 g/ha (LOLSS): 0 to 29% | pest or weed control at 70 g/ha (LOLSS): 0 to 29% | pest or weed control at 140 g/ha (LOLSS): 30 to 44%

COC(=O)c1nc(-c2ccc(Cl)c(F)c2OC)cc(N)c1Cl [Compound 20]
GR50, LOLSS (LOLSS): >140 g ai/ha | GR80, LOLSS (LOLSS): >140 g ai/ha | pest or weed control at 35 g/ha (LOLSS): 0 to 29% | pest or weed control at 70 g/ha (LOLSS): 0 to 29% | pest or weed control at 140 g/ha (LOLSS): 30 to 44%

Nc1c(Cl)c(C(=O)O)nc(-c2ccc(C(F)(F)F)nc2)c1Cl [Compound 33]
GR50, LOLSS (LOLSS): >140 g ai/ha | GR80, LOLSS (LOLSS): >140 g ai/ha | pest or weed control at 35 g/ha (LOLSS): 0 to 29% | pest or weed control at 70 g/ha (LOLSS): 0 to 29% | pest or weed control at 140 g/ha (LOLSS): 30 to 44%

Nc1c(F)c(-c2ccc(C3CC3)nc2)nc(C(=O)O)c1Cl [Compound 36, 4-amino-5-chloro-6′-cyclopropyl-3-fluoro-[2,3′-bipyridine]-6-carboxylic acid]
GR50, LOLSS (LOLSS): 44 g ai/ha | GR80, LOLSS (LOLSS): 131 g ai/ha | pest or weed control at 35 g/ha (LOLSS): 45 to 59% | pest or weed control at 70 g/ha (LOLSS): 45 to 59%

— patent US10765114B2, “4-amino-6-(pyridyl and 2-substitutedphenyl)-picolinates and 6-amino-2-(pyridyl and 2-substitutedphenyl)-pyrimidine-4-carboxylates and their use as herbicides” (Dow AgroSciences LLC, priority 2013, dated 2020)
